By inhibition is commonly meant the relative decrease from the control value, in per cent.

One series deals with T1, 5HT2C receptor (Rattus norvegicus, UniProt P08909).
T1 construct: from tissue; host or cells: rat brain striatum
T1 sequence (P08909 33-460): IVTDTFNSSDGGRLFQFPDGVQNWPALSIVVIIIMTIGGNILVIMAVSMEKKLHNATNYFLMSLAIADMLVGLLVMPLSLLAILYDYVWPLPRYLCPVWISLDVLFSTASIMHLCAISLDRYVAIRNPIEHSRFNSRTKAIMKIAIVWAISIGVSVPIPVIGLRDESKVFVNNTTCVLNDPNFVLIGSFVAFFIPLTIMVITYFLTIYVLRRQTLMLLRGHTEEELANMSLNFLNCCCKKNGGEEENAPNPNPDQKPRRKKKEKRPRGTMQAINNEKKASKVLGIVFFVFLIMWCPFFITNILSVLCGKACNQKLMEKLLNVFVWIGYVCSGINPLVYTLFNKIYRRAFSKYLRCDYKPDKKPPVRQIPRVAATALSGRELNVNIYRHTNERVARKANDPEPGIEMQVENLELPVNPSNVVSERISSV
As to the kind of experiment: 5HT2C receptor binding assay ([3H]-mesulergine, rat striatum membrane). Particulars: for affinity with 5HT2C (in words): summary of in vitro assay; for inhibition at 10 µM: test compound final concentration 10^−5 M, [3H]-mesulergine, rat striatum membrane, read-out: 5HT2C Inhibition rate (%). On the procedure: Preparation of 5HT2C Membrane
Rats were decapitated on ice. […] Centrifugation was conducted.
Materials for the Receptor Binding Assay

Another series can be described thus: in vivo. The conditions noted are these: both sexes, mouse, in vivo, po; single intragastric administration in mice; read-out: LD50 (po, mg/kg).
In the next series the target is 5HT2A receptor (Rattus norvegicus, UniProt P14842). As to the kind of experiment: 5HT2A receptor binding assay ([3H]-Ketanserin, rat striatum membrane). The conditions noted are these: for inhibition at 10 µM: read-out: 5HT2A Inhibition rate (%); for affinity with 5HT2A (in words): summary of in vitro assay.
5HT2A receptor, sequence (P14842 whole entry): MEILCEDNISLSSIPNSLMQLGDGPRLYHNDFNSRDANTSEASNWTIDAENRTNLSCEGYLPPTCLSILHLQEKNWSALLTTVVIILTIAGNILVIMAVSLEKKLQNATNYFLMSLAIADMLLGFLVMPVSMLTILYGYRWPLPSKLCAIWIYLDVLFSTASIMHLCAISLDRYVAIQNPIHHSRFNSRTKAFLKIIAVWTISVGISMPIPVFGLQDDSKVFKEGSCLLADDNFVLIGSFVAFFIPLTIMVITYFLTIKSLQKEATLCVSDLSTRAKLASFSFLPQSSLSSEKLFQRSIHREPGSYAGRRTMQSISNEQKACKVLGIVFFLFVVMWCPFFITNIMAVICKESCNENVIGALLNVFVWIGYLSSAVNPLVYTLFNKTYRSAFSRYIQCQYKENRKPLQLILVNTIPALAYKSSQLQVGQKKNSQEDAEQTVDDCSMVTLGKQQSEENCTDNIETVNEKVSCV

In the case of `O=C(CCCN1CCC(c2noc3cc(F)ccc23)CC1)c1cc2c3c(c1)CCC(=O)N3CCC2` [Compound 5], at 5HT2C receptor, the “affinity with 5HT2C (in words)” value is on record as “low affinities” and the inhibition at 10 µM was determined as 66.8%. For the same compound, the LD50 at 7 days in “in vivo” is > 2000 mg/kg. Further, on 5HT2A receptor, the inhibition at 10 µM came to 99.5% and the “affinity with 5HT2A (in words)” value is given as “high affinities”.
For `O=C(CCN1CCC(c2noc3cc(F)ccc23)CC1)c1cc2c3c(c1)CCN3C(=O)CC2` [Compound 12], in that order: “low affinities”, 56.5%, > 2000 mg/kg, 94.4% and “high affinities”.

The record behind these values is patent US10517862B2, “Fused heterocyclic compound derivative and application thereof” (NHWA PHARMA. CORPORATION, priority 2015, dated 2019).
